The target in test [1] is T1, human hNET (Homo sapiens, UniProt P23975).
T1 construct: expressed in transfected cells; host or cells: MDCK-Net6 (MDCK cells stably transfected with hNET)
Nature of the test: Norepinephrine (NE) uptake assay in MDCK-Net6 cells. It counts as cell-based. Conditions: 1 μM test compound, [3H]NE uptake. How it is done: MDCK-Net6 cells, stably transfected with human hNET (Pacholczyk, T., R. D. Blakely, and S. G. Amara, Nature, 1991, 350(6316): p. 350-4) were cultured in growth medium containing high glucose DMEM (Gibco, Cat. No. 11995), 10% FBS (dialyzed, heat-inactivated, US Bio-Technologies, Lot FBD1129HI) and 500 μg/ml G418 (Gibco, Cat. No. 10131). Cells were plated at 300,000/T75 flask and cells were split twice weekly. The JAR cell line (human placental choriocarcinoma) was purchased from ATCC (Cat. No. HTB-144). The cells were cultured in growth medium containing RPMI 1640 (Gibco, Cat. No. 72400), 10% FBS (Irvine, Cat. No. 3000), 1% sodium pyruvate (Gibco, Cat. No. 1136) and 0.25% glucose. Cells were plated at 250,000 cells/T75 flask and split twice weekly. For all assays, cells were plated in Wallac 96-well sterile plates (PerkinEimer, Cat. No. 3983498).
On day 1, cells were plated at 3,000 cells/well in growth medium and maintained in a cell incubator (37° C., 5% CO2). On day 2, growth medium was replaced with 200 μl of assay buffer (25 mM HEPES; 120 mM NaCl; 5 mM KCl; 2.5 mM CaCl2; 1.2 mM MgSO4; 2 mg/ml glucose (pH 7.4, 37° C.)) containing 0.2 mg/ml ascorbic acid and 10 μM pargyline. Plates containing cells with 200 μl of assay buffer were equilibrated for 10 minutes at 37° C. prior to addition of compounds. A stock solution of desipramine was prepared in DMSO (10 mM) and delivered to triplicate wells containing cells for a final test concentration of 1 μM. Data from these wells were used to define non-specific NE uptake (minimum NE uptake). Test compounds were prepared in DMSO (10 mM) and diluted in assay buffer according to test range (1 to 10,000 nM). Twenty-five microliters of assay buffer (maximum NE uptake) or test compound were added directly to triplicate wells containing cells in 200 μl of assay buffer. The cells in assay buffer with test compounds were incubated for 20 minutes at 37° C. To initiate the NE uptake, [^3H]NE diluted in assay buffer (120 nM final assay concentration) was delivered in 25 μl aliquots to each well and the plates were incubated for 5 minutes (37° C.). The reaction was terminated by decanting the supernatant from the plate. The plates containing cells were washed twice with 200 μl assay buffer (37° C.) to remove free radioligand. The plates were then inverted, left to dry for 2 minutes, then reinverted and air-dried for an additional 10 minutes. The cells were lysed in 25 μl of 0.25 N NaOH solution (4° C.), placed on a shake table and vigorously shaken for 5 minutes. After cell lysis, 75 μl of scintillation cocktail was added to each well and the plates were sealed with film tape. The plates were returned to the shake table and vigorously shaken for a minimum of 10 minutes to ensure adequate partitioning of organic and aqueous solutions. The plates were counted in a Wallac Microbeta counter (PerkinEimer) to collect the raw cpm data.
For each experiment, a data stream of cpm values collected from the Wallac Microbeta counter was downloaded to a Microsoft Excel statistical application program. Calculations of EC50 values were made using the transformed-both-sides logistic dose responses program written by Wyeth Biometrics Department. The statistical program uses mean cpm values from wells representing maximum binding or uptake (assay buffer) and mean cpm values from wells representing minimum binding or uptake ((1 μM desipramine (hNET) or 1 μM paroxetine (hSERT)). Estimation of the EC50 value was completed on a log scale and the line was fit between the maximum and minimum binding or uptake values. All graphic data representation was generated by normalizing each data point to a mean percent based on the maximum and minimum binding or uptake values. The EC50 values reported from multiple experiments were calculated by pooling the raw data from each experiment and analyzing the pooled data as one experiment.

In test [2] the target is T1, human hNET. Described as above. It counts as cell-based. The conditions noted are these: 30 μM test compound (stated in cell), [3H]NE uptake.

SMILES strings stand for the structures. Counter-ions that a name gives are not always drawn.

T1 sequence (P23975 whole entry): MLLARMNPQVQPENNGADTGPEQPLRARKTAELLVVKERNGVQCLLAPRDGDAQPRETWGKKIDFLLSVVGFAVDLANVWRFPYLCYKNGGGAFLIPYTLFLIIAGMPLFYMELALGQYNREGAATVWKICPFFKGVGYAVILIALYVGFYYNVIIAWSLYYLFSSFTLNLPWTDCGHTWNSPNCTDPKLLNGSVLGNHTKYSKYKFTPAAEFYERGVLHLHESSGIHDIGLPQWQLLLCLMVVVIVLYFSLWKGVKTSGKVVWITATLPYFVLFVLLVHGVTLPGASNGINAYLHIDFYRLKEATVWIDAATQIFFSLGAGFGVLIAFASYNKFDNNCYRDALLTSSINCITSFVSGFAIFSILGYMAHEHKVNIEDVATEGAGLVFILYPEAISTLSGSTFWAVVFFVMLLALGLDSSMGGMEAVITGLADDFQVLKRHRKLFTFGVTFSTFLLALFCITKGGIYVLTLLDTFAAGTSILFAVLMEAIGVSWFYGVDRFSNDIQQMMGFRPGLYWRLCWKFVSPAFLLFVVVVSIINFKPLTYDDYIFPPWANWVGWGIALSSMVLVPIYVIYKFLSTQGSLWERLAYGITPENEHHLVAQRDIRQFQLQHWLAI

Broadly, the inhibition is how much of the control response was suppressed. Read a low inhibition as little suppression. `OC1(C(CNCc2ccccc2)c2ccc3ccccc3c2)CCCCC1` (stereo not drawn) [Example 62, 1-[2-(benzylamino)-1-(2-naphthyl)ethyl]cyclohexanol hydrochloride] showed an inhibition at 1 µM at human hNET [1] of 30%.

In turn, `OC1(C(CNCc2ccc(C(F)(F)F)cc2)c2ccc(Cl)c(Cl)c2)CCCCC1` (stereo not drawn) [Example 75, 1-(1-(3,4-dichlorophenyl)-2-{[4-(trifluoromethyl)benzyl]amino}ethyl)cyclohexanol hydrochloride] gave an inhibition at 1 µM on human hNET [1] of 22%.

At human hNET [1], `OC1(C(CNCc2ccccc2)c2ccc(Cl)c(Cl)c2)CCCCC1` (stereo not drawn) [Example 38, 1-[2-(benzylamino)-1-(3,4-dichlorophenyl)ethyl]cyclohexanol hydrochloride] gave an inhibition at 1 µM of 56%.

`OC1(C(CNC2CCCCC2)c2ccc(Cl)c(Cl)c2)CCCCC1` (stereo not drawn) [Example 42, 1-[2-(cyclohexylamino)-1-(3,4-dichlorophenyl)ethyl]cyclohexanol hydrochloride] yielded an inhibition at 1 µM on human hNET [1] of 48%.

Molecule `OC1(C(CNCc2ccc(C(F)(F)F)cc2)c2cccc(Br)c2)CCCCC1` (stereo not drawn) [Example 90, 1-(1-(3-bromophenyl)-2-{[4-(trifluoromethyl)benzyl]amino}ethyl)cyclohexanol hydrochloride] had an inhibition at 1 µM against human hNET [1] of 15%.

With `OC1(C(CNCc2ccc(F)cc2)c2ccc(Cl)c(Cl)c2)CCCCC1` (stereo not drawn) [Example 80, 1-{1-(3,4-dichlorophenyl)-2-[(4-fluorobenzyl)amino]ethyl}cyclohexanol hydrochloride], at human hNET [1], 1 µM produced 20% inhibition.

`OC1(C(CN2CCCCC2)c2cccc(Cl)c2)CCCCC1` (stereo not drawn) [Example 85, 1-[1-(3-chlorophenyl)-2-piperidin-1-ylethyl]cyclohexanol hydrochloride] had an inhibition at 1 µM against human hNET [1] of 17%.

With `OC1(C(CN2CCOCC2)c2cccc(Cl)c2)CCCCC1` (stereo not drawn) [Example 57, 1-[1-(3-chlorophenyl)-2-morpholin-4-ylethyl]cyclohexanol hydrochloride], the inhibition at 1 µM against human hNET [1] amounted to 35%.

At human hNET [1], `OC1(C(CNCc2ccc(F)cc2)c2cccc(C(F)(F)F)c2)CCCCC1` (stereo not drawn) [Example 47, 1-{2-[(4-fluorobenzyl)amino]-1-[3-(trifluoromethyl)phenyl]ethyl}cyclohexanol hydrochloride] came in with an inhibition at 1 µM of 40%.

Consider `OC1(C(CN2CCOCC2)c2cccc(Br)c2)CCC1` (stereo not drawn) [Example 95, 1-[1-(3-bromophenyl)-2-morpholin-4-ylethyl]cyclobutanol hydrochloride], for which the inhibition at 30 µM at human hNET [2] came out at 67%.

Consider `OC1(C(CN2CCOCC2)c2cccc(Br)c2)CCCCC1` (stereo not drawn) [Example 99, 1-[1-(3-bromophenyl)-2-morpholin-4-ylethyl]cyclohexanol hydrochloride], for which the inhibition at 30 µM on human hNET [2] amounted to 55%.

For the molecule `CN1CCC(O)(C(CNCc2ccccc2)c2ccc(Cl)c(Cl)c2)CC1` (stereo not drawn) [Example 15, 4-[2-(benzylamino)-1-(3,4-dichlorophenyl)ethyl]-1-methylpiperidin-4-ol dihydrochloride], the inhibition at 1 µM against human hNET [1] stood at 89%.

Regarding `OC1(C(CNCc2ccccc2)c2cccc(Cl)c2)CCCCC1` (stereo not drawn) [Example 41, 1-[2-(benzylamino)-1-(3-chlorophenyl)ethyl]cyclohexanol hydrochloride], the inhibition at 1 µM at human hNET [1] was 51%.

On human hNET [1], `OC1(C(CN2CCNCC2)c2cccc(Cl)c2)CCCCC1` (stereo not drawn) [Example 1, 1-[1-(3-chlorophenyl)-2-piperazin-1-ylethyl]cyclohexanol dihydrochloride] gave an inhibition at 1 µM of 93%.

In turn, `OC1(C(CNCc2ccccc2)c2ccc3ccccc3c2)CCC1` (stereo not drawn) [Example 12, 1-[2-(benzylamino)-1-(2-naphthyl)ethyl]cyclobutanol hydrochloride] showed an inhibition at 1 µM on human hNET [1] of 90%.

In turn, `OC1(C(CNCc2ccccc2)c2ccc(Cl)c(Cl)c2)CCC1` (stereo not drawn) [Example 10, 1-[2-(benzylamino)-1-(3,4-dichlorophenyl)ethyl]cyclobutanol hydrochloride] displayed an inhibition at 1 µM against human hNET [1] of 92%.

In turn, `OC1(C(CNC2CCCc3ccccc32)c2cccc(Br)c2)CCCCC1` (stereo not drawn) [Example 55, 1-[1-(3-bromophenyl)-2-(1,2,3,4-tetrahydronaphthalen-1-ylamino)ethyl]cyclohexanol hydrochloride] displayed an inhibition at 1 µM against human hNET [1] of 38%.

`OC1(C(CN2CCCC2)c2cccc(Cl)c2)CCCCC1` (stereo not drawn) [Example 34, 1-[1-(3-chlorophenyl)-2-pyrrolidin-1-ylethyl]cyclohexanol hydrochloride] returned an inhibition at 1 µM on human hNET [1] of 65%.

On human hNET [2], `OC1(C(CNCc2ccc(C(F)(F)F)cc2)c2cccc(Cl)c2)CCCCC1` (stereo not drawn) [Example 105, 1-(1-(3-chlorophenyl)-2-{[4-(trifluoromethyl)benzyl]amino}ethyl)cyclohexanol hydrochloride] came in with an inhibition at 30 µM of 99%.

In turn, `OC1(C(CNCc2cccc(Cl)c2)c2ccc3ccccc3c2)CCCCC1` (stereo not drawn) [Example 33, 1-[2-[(3-chlorobenzyl)amino]-1-(2-naphthyl)ethyl]cyclohexanol hydrochloride] came in with an inhibition at 1 µM against human hNET [1] of 69%.

Turning to `CN1CCC(O)(C(CNCc2ccccc2)c2cccc(Br)c2)CC1` (stereo not drawn) [Example 44, 4-[2-(benzylamino)-1-(3-bromophenyl)ethyl]-1-methylpiperidin-4-ol dihydrochloride], the inhibition at 1 µM at human hNET [1] is 44%.

`CN1CCC(O)(C(CN2CCOCC2)c2cccc(Br)c2)CC1` (stereo not drawn) [Example 116, 4-[1-(3-bromophenyl)-2-morpholin-4-ylethyl]-1-methylpiperidin-4-ol dihydrochloride] showed an inhibition at 30 µM at human hNET [2] of 6%.

In the case of `OC1(C(CNCc2ccccc2)c2cccc(Br)c2)CCCCC1` (stereo not drawn) [Example 61, 1-[2-(benzylamino)-1-(3-bromophenyl)ethyl]cyclohexanol hydrochloride], the inhibition at 1 µM against human hNET [1] stood at 31%.

`OC1(C(CNCc2ccc(F)cc2)c2ccc3ccccc3c2)CCCCC1` (stereo not drawn) [Example 113, 1-[2-[(4-fluorobenzyl)amino]-1-(2-naphthyl)ethyl]cyclohexanol hydrochloride] displayed an inhibition at 30 µM on human hNET [2] of 55%.

For the molecule `OC1(C(CNCc2cccc(Cl)c2)c2cccc(Br)c2)CCCCC1` (stereo not drawn) [Example 60, 1-{1-(3-bromophenyl)-2-[(3-chlorobenzyl)amino]ethyl}cyclohexanol hydrochloride], the inhibition at 1 µM on human hNET [1] was found to be 33%.

`OC1(C(CNC2CCCCC2)c2cccc(Cl)c2)CCCCC1` (stereo not drawn) [Example 67, 1-[1-(3-chlorophenyl)-2-(cyclohexylamino)ethyl]cyclohexanol hydrochloride] returned an inhibition at 1 µM against human hNET [1] of 26%.

At human hNET [2], `CN1CCC(O)(C(CN2CCOCC2)c2ccc(Cl)c(Cl)c2)CC1` (stereo not drawn) [Example 114, 4-[1-(3,4-dichlorophenyl)-2-morpholin-4-ylethyl]-1-methylpiperidin-4-ol dihydrochloride] gave an inhibition at 30 µM of 52%.

The molecule `OC1(C(CNC2CCCCC2)c2cccc(Br)c2)CCCCC1` (stereo not drawn) [Example 48, 1-[1-(3-bromophenyl)-2-(cyclohexylamino)ethyl]cyclohexanol hydrochloride] came in with an inhibition at 1 µM at human hNET [1] of 40%.

On to `OC1(C(CN2CCOCC2)c2ccc(Cl)c(Cl)c2)CCC1` (stereo not drawn) [Example 83, 1-[1-(3,4-dichlorophenyl)-2-morpholin-4-ylethyl]cyclobutanol hydrochloride], for which testing at 1 µM on human hNET [1] gave an inhibition of 19%.

In the case of `OC1(C(CNCc2ccccc2)c2cccc(Br)c2)CCC1` (stereo not drawn) [Example 40, 1-[2-(benzylamino)-1-(3-bromophenyl)ethyl]cyclobutanol hydrochloride], the inhibition at 1 µM on human hNET [1] stood at 55%.
